System: monitor protein expressed on the cell membrane
Assay: Recovery of cell-membrane luminescence after Sulfo-NHS deactivation (intracellular transport of monitor protein)
Type: cell-based, Chinese hamster
Conditions: CHO-K1 cells expressing pCMV-DL-D3-CD8, 1 mM BFA, up to 6 hours after deactivation, FIG. 6
Method: The vector pCMV-DL-D3-CD8 prepared in Example 1 was introduced into an animal cell. Briefly, CHO-K1 cells were seeded on 6-well plates at 1=10^6 cells/well and cultured in D-MEM/Ham's F-12 medium (Wako Purechamical Industries) containing 10% FCS. After overnight culture at 37° C., 4 μg of pCMV-DL-D3-CD8 was added to each well and mixed with 250 μl of Opti-MEM serum-free medium (Gibco RRL) and reacted at room temperature for 5 min. Then, 10 μl of lipofectamine 2000 reacted in 250 μl of Opti-MEM serum-free medium at room temperature for 5 min was mixed with the cells to perform transfection in Opti-MEM serum-free medium. Then, the medium was exchanged for D-MEM/Ham's F-12 medium containing 10% FCS. […] Then, cells were counted, followed by preparation of a cell suspension with a cell density of 2×10^7 cells/ml.
By adding 0.5 mM Sulfo-NHS (Pierce) to the cell suspension, the monitor protein expressed on the cell membrane was inactivated. […] Cells were counted and arranged to give a density of 4×10^5 cells per 100 μl. […] To one aliquot, 2 μl of dinoflagellate-derived luciferin was added and the luminescence activity of the monitor protein expressed on the cell membrane was measured. Other aliquots were subjected to measurement of the amount of ATP-derived luminescence in order to examine whether the cell count is constant in individual samples taken at the above-indicated time points.

SMILES: C[C@H]1CCC/C=C/[C@@H]2C[C@H](O)C[C@H]2[C@H](O)/C=C/C(=O)O1 [BFA, Brefeldin A]
- luminescence derived from the membrane protein expressed on the cell membrane after deactivation treatment: luminescence was not recognized

Source: US20080182274A1, “MONITOR PROTEINS USABLE FOR ANALYZING EXPRESSION OF MEMBRANE PROTEINS” (National Institute of Advanced Industrial Science and …, priority 2007, published 2008)
